Our source for the IC50 and Ki values is ChEMBL document CHEMBL1909046, “DrugMatrix in vitro pharmacology data”.

Experiment [1] deals with T1, Vasoactive intestinal polypeptide receptor 1 (Homo sapiens, UniProt P32241).
T1 sequence (P32241 whole entry): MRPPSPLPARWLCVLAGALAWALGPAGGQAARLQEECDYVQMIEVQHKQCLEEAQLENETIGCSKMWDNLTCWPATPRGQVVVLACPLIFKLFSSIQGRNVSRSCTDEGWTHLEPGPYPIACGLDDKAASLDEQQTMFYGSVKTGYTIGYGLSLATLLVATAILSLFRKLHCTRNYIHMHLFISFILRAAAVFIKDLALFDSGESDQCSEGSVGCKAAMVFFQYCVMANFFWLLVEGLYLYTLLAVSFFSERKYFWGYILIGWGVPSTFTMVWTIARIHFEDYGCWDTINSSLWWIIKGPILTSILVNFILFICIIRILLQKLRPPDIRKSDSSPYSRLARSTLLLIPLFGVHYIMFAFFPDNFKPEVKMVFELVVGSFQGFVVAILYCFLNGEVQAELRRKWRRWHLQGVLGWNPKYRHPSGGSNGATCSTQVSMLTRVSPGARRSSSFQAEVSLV
Type of experiment: cell membranes, Membrane. Conditions: ht-29.

Experiment [2] addresses T2, Polyunsaturated fatty acid lipoxygenase ALOX15 (Oryctolagus cuniculus, UniProt P12530).
T2 sequence (P12530 whole entry): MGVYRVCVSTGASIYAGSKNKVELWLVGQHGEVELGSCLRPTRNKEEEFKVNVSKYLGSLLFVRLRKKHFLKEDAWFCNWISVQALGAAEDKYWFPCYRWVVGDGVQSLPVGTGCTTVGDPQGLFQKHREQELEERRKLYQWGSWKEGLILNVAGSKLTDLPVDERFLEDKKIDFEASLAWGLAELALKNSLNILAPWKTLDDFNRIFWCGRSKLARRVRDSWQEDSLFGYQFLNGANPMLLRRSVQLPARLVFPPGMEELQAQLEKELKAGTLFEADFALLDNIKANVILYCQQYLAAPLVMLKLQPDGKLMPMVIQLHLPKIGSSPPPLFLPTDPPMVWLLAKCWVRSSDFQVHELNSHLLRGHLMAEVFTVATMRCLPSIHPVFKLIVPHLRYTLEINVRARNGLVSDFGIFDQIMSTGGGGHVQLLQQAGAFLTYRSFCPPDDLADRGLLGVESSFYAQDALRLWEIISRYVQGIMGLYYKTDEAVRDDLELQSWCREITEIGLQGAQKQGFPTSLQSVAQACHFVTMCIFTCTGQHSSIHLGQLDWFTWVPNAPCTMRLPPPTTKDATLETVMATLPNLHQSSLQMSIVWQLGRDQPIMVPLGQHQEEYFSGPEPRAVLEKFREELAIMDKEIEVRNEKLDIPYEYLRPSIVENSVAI
As to the kind of experiment: biochemical. Conditions: reticulocytes. Type of experiment: tissue-based, Reticulocytes.

Experiment [3] has as its target T3, Thromboxane-A synthase (Homo sapiens, UniProt P24557).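 Also: enzyme inhibition assay with PGH2 supplied as substrate; in other assays of this panel Not Active means under 50% inhibition at 10 µM.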
T3 sequence (P24557 whole entry): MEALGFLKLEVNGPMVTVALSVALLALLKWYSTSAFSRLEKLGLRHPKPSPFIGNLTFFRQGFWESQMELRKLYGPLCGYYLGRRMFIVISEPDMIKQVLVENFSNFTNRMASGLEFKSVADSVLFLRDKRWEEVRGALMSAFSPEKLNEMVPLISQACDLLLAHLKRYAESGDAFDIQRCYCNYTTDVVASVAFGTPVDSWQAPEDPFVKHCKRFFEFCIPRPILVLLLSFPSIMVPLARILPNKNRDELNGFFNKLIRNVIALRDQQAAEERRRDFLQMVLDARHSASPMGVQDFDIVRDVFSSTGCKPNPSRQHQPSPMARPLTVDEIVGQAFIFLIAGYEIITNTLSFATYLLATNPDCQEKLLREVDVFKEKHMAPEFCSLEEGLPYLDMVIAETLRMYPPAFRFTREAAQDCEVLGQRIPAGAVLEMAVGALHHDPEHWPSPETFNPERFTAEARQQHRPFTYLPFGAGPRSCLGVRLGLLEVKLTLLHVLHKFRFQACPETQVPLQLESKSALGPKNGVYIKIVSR
As to the kind of experiment: biochemical. It is filed as tissue-based, Platelet. Conditions: platelet.

Experiment [4] has as its target Protein kinase C alpha type (Homo sapiens, UniProt P17252). Type of experiment: cell-based. Conditions: sf9.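 Also: inhibition of PKCalpha kinase activity measured in an enzyme assay with histone as the phosphorylation substrate; in other assays of this panel Not Active means under 50% inhibition at 10 µM.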
Experiment [5] deals with T4, Amine oxidase [flavin-containing] A (Homo sapiens, UniProt P21397).
T4 sequence (P21397 whole entry): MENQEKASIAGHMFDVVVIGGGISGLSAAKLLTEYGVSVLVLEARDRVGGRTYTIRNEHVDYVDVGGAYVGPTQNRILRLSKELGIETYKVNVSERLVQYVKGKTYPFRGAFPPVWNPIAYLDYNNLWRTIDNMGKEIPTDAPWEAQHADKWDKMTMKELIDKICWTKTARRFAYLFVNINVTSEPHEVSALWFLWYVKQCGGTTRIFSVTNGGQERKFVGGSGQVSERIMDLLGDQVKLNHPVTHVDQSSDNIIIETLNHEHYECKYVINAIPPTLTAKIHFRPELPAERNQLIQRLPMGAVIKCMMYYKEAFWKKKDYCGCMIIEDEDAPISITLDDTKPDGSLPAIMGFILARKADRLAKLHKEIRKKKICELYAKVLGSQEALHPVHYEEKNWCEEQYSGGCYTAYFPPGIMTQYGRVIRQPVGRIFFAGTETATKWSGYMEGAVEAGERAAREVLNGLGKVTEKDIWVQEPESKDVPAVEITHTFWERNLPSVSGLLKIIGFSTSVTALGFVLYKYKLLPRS
As to the kind of experiment: DRUGMATRIX: Monoamine Oxidase MAO-A enzyme inhibition (substrate: Kynuramine). Set-up: species or system BTI-TN-5B1-4. Conditions: Not Active = under 50% inhibition at 10 µM.

Experiment [6] concerns the target Melanocortin receptor 3 (Homo sapiens, UniProt P41968). It is filed as cell membranes, HEK293, Membrane. Conditions: hek293. Also: in other assays of this panel Not Active means under 50% inhibition at 10 µM.
The target in experiment [7] is Prostaglandin G/H synthase 1 (Homo sapiens, UniProt P23219). Nature of the experiment: biochemical. It is filed as tissue-based, Platelet. Conditions: platelet.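 Also: inhibition of COX-1 enzyme activity, with arachidonic acid supplied as substrate; in other assays of this panel Not Active means under 50% inhibition at 10 µM.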
Experiment [8] in a line: DRUGMATRIX: Serotonin (5-Hydroxytryptamine) 5-HT3 radioligand binding (ligand: [3H] GR-65630). Type of experiment: cell membranes, Membrane. Conditions: hek293; Not Active = under 50% inhibition at 10 µM.

Prostaglandin G/H synthase 1, sequence (P23219 whole entry): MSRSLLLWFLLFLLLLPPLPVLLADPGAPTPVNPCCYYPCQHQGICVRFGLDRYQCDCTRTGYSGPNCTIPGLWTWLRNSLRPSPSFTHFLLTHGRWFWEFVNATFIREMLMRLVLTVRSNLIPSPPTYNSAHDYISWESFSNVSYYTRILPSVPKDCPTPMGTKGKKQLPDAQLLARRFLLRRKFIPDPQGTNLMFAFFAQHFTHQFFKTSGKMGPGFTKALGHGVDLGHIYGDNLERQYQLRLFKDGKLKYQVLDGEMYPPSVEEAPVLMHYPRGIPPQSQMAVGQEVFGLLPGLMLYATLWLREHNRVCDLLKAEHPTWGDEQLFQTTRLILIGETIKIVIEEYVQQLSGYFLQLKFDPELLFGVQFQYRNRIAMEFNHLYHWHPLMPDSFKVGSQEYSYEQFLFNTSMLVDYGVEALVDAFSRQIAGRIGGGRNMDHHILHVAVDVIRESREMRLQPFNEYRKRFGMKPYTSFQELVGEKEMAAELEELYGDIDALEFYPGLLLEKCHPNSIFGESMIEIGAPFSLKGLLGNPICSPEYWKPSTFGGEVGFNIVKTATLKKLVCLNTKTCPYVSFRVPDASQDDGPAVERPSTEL
Melanocortin receptor 3, sequence (P41968 whole entry): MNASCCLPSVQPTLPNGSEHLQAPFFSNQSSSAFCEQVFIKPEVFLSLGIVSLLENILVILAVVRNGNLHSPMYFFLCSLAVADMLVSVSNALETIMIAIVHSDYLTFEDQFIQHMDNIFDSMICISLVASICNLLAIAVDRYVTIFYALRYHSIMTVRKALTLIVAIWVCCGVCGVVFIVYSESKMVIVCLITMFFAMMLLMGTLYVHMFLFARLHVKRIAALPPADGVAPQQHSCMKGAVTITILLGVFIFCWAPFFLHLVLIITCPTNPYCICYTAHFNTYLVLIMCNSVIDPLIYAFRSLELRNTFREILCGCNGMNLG

What is called IC50 is the point on the concentration scale where inhibition reaches its midpoint. On to `O=C(O)CO` [GLYCOLIC ACID], for which the IC50 result in experiment [1], in experiment [2], in experiment [3], in experiment [4], in experiment [5] (bti-tn-5b1-4) and in experiment [6] was “Not Active” in each case. For the same molecule, the IC50 entry in experiment [7] and in experiment [8] was “Not Active” each time. Also, in experiment [8], the Ki result was “Not Active”.
With `COc1ccccc1OCCNCC(O)COc1cccc2[nH]c3ccccc3c12` (centres undefined) [CARVEDILOL], the 50% inhibitory concentration (IC50) result in experiment [1], in experiment [2], in experiment [3], in experiment [4], in experiment [5] (bti-tn-5b1-4) and in experiment [6] was “Not Active” each time. Moreover, the IC50 entry in experiment [7] and in experiment [8] was “Not Active” in each case. Also, in experiment [8], the Ki result was “Not Active”.
Regarding `O=C(NCCN1CCOCC1)c1ccc(Cl)cc1` [MOCLOBEMIDE], the IC50 result in experiment [1], in experiment [2], in experiment [3], in experiment [4], in experiment [5] (bti-tn-5b1-4) and in experiment [6] was “Not Active” in each case. Also, the IC50 entry in experiment [7] and in experiment [8] was “Not Active” in each case. In addition, in experiment [8], the Ki result is on record as “Not Active”.
Take `C=CCO` [ALLYL ALCOHOL]: the IC50 result in experiment [1], in experiment [2], in experiment [3], in experiment [4], in experiment [5] (bti-tn-5b1-4) and in experiment [6] was “Not Active” in each case. Besides, the IC50 result in experiment [7] and in experiment [8] was “Not Active” throughout. Further, the Ki result in experiment [8] is “Not Active”.
For the molecule `O=c1[nH]cnc2c1ncn2[C@H]1CC[C@@H](CO)O1` [DIDANOSINE], the IC50 entry in experiment [1], in experiment [2], in experiment [3], in experiment [4], in experiment [5] (bti-tn-5b1-4) and in experiment [6] was “Not Active” in each case. The IC50 entry in experiment [7] and in experiment [8] was “Not Active” in each case. Besides, the Ki entry in experiment [8] is “Not Active”.
In the case of `CC1(COc2ccc(CC3SC(=O)NC3=O)cc2)CCCCC1` (centres undefined) [CIGLITAZONE], the IC50 entry in experiment [1] was “Not Active”; in experiment [2] it was “Not Active”; in experiment [3], “Not Active”; in experiment [4] it was “Not Active”; in experiment [5] (read-out: IC50), 29.2 µM; in experiment [6] it was “Not Active”. Also, the half-inhibitory concentration (IC50) entry in experiment [7] and in experiment [8] was “Not Active” throughout. Also, the Ki result in experiment [8] was “Not Active”.
For the molecule `CC(=O)Nc1ccc2c(c1)Cc1ccccc1-2` [2-ACETYLAMINOFLUORENE], the IC50 entry is “Not Active” in experiment [1]; “Not Active” in experiment [2]; “Not Active” in experiment [3]; “Not Active” in experiment [4]; 0.059 µM in experiment [5] (read-out: IC50); “Not Active” in experiment [6]. In addition, the IC50 entry in experiment [7] and in experiment [8] was “Not Active” in each case. In experiment [8], the Ki entry is recorded as “Not Active”.
In the case of `C[C@H](C(=O)O)c1ccc2oc(-c3ccc(F)cc3)nc2c1` [FLUNOXAPROFEN], the IC50 result in experiment [1], in experiment [2], in experiment [3], in experiment [4], in experiment [5] (bti-tn-5b1-4) and in experiment [6] was “Not Active” in each case. Besides, the half-inhibitory concentration (IC50) result in experiment [7] and in experiment [8] was “Not Active” in each case. In experiment [8], the Ki entry is “Not Active”.
In the case of `CC(C)Cn1cnc2c(N)nc3ccccc3c21` [IMIQUIMOD], the IC50 result in experiment [1], in experiment [2], in experiment [3], in experiment [4], in experiment [5] (bti-tn-5b1-4) and in experiment [6] was “Not Active” in each case. The IC50 entry in experiment [7] and in experiment [8] was “Not Active” throughout. The Ki result in experiment [8] was “Not Active”.
As for `OC[C@H]1OC2C3[C@@H](CO)OC(O[C@H]4[C@H](O)[C@@H](O)[C@@H](O[C@H]5[C@H](O)[C@@H](O)[C@@H](O[C@H]6[C@H](O)[C@@H](O)[C@@H](O[C@H]7[C@H](O)[C@@H](O)[C@@H](O[C@H]8[C@H](O)[C@@H](O)[C@@H](O[C@H]9[C@H](O)[C@@H](O)C(OC1[C@H](O)[C@H]2O)O[C@@H]9CO)O[C@@H]8CO)O[C@@H]7CO)O[C@@H]6CO)O[C@@H]5CO)O[C@@H]4CO)[C@H](O)[C@H]3O`, the half-maximal inhibitory concentration (IC50) result in experiment [1], in experiment [2], in experiment [3], in experiment [4], in experiment [5] (bti-tn-5b1-4) and in experiment [6] was “Not Active” throughout. Also, the IC50 entry in experiment [7] and in experiment [8] was “Not Active” throughout. The Ki result in experiment [8] is reported as “Not Active”.
With `CCN1CCN(c2cc3c(cc2F)c(=O)c(C(=O)O)cn3C2CC2)CC1` [ENROFLOXACIN], the IC50 entry in experiment [1], in experiment [2], in experiment [3], in experiment [4], in experiment [5] (bti-tn-5b1-4) and in experiment [6] was “Not Active” in each case. The IC50 result in experiment [7] and in experiment [8] was “Not Active” each time. The Ki entry in experiment [8] was “Not Active”.
As to POVIDONE, the half-inhibitory concentration (IC50) entry in experiment [1], in experiment [2], in experiment [3], in experiment [4], in experiment [5] (bti-tn-5b1-4) and in experiment [6] was “Not Active” in each case. The concentration for half-maximal inhibition (IC50) entry in experiment [7] and in experiment [8] was “Not Active” throughout. Moreover, the Ki result in experiment [1], in experiment [2], in experiment [3], in experiment [4], in experiment [5] (bti-tn-5b1-4) and in experiment [6] was “Not Active” each time. The Ki entry in experiment [7] and in experiment [8] was “Not Active” in each case.
Take `C=C(Cl)Cl` [1,1-DICHLOROETHENE]: the IC50 entry in experiment [1], in experiment [2], in experiment [3], in experiment [4], in experiment [5] (bti-tn-5b1-4) and in experiment [6] was “Not Active” throughout. Besides, the IC50 entry in experiment [7] and in experiment [8] was “Not Active” throughout. For the same molecule, in experiment [8], the Ki entry is “Not Active”.
